test system: not listed separately; assay: Neurotoxicity against mouse HT-22 cells assessed as cell survival at 20 uM treated for 24 hrs by MTS assay; assay type: toxicity, cell-based; conditions: ht-22, 24 h

Row | Structure (SMILES) | Activity
1 | O=C1NC(N2CCOCC2)=N/C1=C\c1ccc2c(c1)OCO2 | Non-Toxic
2 | O=C1NC(Nc2cccc(F)c2)=N/C1=C\c1ccc2c(c1)OCO2 | Non-Toxic
3 | O=C1NC(N2CCCC2)=N/C1=C\c1ccc2c(c1)OCO2 | Non-Toxic
4 | O=C1NC(Nc2ccccc2)=N/C1=C\c1ccc(O)c(O)c1 | Non-Toxic

target: Dual specificity protein kinase CLK1 (Mus musculus, UniProt P22518); assay: Inhibition of GST-fused mouse recombinant CLK1 expressed in Escherichia coli using GRSRSRSRSRSR peptide as substrate incubated for 30 mins in presence of ATP by scintillation counting method; conditions: not given
Sequence (P22518 whole entry, the tested form may be a part): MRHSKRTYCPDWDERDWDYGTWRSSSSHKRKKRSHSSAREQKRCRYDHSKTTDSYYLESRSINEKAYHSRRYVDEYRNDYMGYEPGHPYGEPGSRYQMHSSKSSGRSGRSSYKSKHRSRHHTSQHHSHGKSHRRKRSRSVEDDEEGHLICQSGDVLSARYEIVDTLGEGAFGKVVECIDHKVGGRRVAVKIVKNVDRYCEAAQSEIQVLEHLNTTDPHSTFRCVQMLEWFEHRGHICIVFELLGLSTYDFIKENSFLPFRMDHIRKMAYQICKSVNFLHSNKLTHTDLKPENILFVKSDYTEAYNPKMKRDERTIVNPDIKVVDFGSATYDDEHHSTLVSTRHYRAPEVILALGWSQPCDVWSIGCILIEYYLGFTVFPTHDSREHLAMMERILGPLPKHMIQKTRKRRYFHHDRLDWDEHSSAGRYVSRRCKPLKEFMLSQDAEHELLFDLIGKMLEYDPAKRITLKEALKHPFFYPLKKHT

Row | Structure (SMILES) | IC50
5 | O=C1NC(N2CCOCC2)=N/C1=C\c1ccc2c(c1)OCO2 | 0.43 µM
6 | O=C1NC(Nc2cccc(F)c2)=N/C1=C\c1ccc2c(c1)OCO2 | 0.052 µM
7 | O=C1NC(N2CCCC2)=N/C1=C\c1ccc2c(c1)OCO2 | 0.6 µM
8 | O=C1NC(Nc2ccccc2)=N/C1=C\c1ccc(O)c(O)c1 | 0.21 µM

target: T1, Dual specificity tyrosine-phosphorylation-regulated kinase 2 (Homo sapiens, UniProt Q92630); assay: Inhibition of GST-fused human recombinant DYRK2 expressed in Escherichia coli using GRSRSRSRSRSR peptide as substrate incubated for 30 mins in presence of ATP by scintillation counting method; conditions: not given
T1 sequence (Q92630 whole entry): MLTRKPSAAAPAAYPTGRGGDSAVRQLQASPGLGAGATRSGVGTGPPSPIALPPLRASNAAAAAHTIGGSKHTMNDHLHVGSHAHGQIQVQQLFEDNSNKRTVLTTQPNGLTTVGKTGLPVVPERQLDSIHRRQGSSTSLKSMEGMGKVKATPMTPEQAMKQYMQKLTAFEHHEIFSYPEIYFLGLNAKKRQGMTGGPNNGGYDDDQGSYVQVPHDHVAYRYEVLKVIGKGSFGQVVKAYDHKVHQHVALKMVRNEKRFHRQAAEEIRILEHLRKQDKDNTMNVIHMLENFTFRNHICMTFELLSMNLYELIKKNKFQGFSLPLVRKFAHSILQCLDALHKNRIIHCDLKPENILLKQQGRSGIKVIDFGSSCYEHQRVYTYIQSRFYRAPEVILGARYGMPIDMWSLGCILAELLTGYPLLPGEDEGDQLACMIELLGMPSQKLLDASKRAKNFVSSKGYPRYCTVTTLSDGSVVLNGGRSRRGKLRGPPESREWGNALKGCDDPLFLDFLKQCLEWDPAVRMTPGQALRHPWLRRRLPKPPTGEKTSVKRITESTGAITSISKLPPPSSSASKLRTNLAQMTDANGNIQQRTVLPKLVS

Row | Structure (SMILES) | IC50
9 | O=C1NC(N2CCOCC2)=N/C1=C\c1ccc2c(c1)OCO2 | 0.41 µM
10 | O=C1NC(Nc2cccc(F)c2)=N/C1=C\c1ccc2c(c1)OCO2 | 0.023 µM
11 | O=C1NC(N2CCCC2)=N/C1=C\c1ccc2c(c1)OCO2 | 0.93 µM
12 | O=C1NC(Nc2ccccc2)=N/C1=C\c1ccc(O)c(O)c1 | 0.27 µM

test system: HT-22; assay: Modulation of CLK1 pre-mRNA splicing in mouse HT-22 cells assessed as inclusion of CLK1 exon 4 by measuring change in threshold cycle at 10 uM measured after 4 hrs by real time PCR analysis; assay type: cell-based; conditions: filed as modulator

Row | Structure (SMILES) | deltaCT
13 | O=C1NC(N2CCOCC2)=N/C1=C\c1ccc2c(c1)OCO2 | 0.63
14 | O=C1NC(N2CCCC2)=N/C1=C\c1ccc2c(c1)OCO2 | 0.05

target: Dual specificity protein kinase CLK3 (Mus musculus, UniProt O35492); assay: Inhibition of GST-fused mouse recombinant CLK3 expressed in Escherichia coli using GRSRSRSRSRSR peptide as substrate incubated for 30 mins in presence of ATP by scintillation counting method; conditions: not given
Sequence (O35492 whole entry, the tested form may be a part): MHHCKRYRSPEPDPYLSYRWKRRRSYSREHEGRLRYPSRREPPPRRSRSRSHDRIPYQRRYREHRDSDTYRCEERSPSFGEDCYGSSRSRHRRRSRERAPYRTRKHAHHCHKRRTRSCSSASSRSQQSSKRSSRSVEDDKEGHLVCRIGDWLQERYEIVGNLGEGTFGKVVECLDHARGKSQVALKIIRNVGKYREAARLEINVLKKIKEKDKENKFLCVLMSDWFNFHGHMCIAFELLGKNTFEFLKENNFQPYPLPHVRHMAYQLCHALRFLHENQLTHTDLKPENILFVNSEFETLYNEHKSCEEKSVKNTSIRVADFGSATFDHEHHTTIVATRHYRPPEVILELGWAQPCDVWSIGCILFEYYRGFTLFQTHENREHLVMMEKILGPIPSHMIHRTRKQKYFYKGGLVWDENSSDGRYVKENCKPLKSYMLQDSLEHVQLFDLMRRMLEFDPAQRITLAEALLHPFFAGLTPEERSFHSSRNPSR

Row | Structure (SMILES) | IC50
15 | O=C1NC(N2CCOCC2)=N/C1=C\c1ccc2c(c1)OCO2 | 5.6 µM
16 | O=C1NC(Nc2cccc(F)c2)=N/C1=C\c1ccc2c(c1)OCO2 | 0.56 µM
17 | O=C1NC(N2CCCC2)=N/C1=C\c1ccc2c(c1)OCO2 | 3.2 µM
18 | O=C1NC(Nc2ccccc2)=N/C1=C\c1ccc(O)c(O)c1 | 2.3 µM

target: Serine/threonine-protein kinase pim-1 (Homo sapiens, UniProt P11309); assay: Inhibition of human recombinant Pim1 expressed in Escherichia coli using histone H1 as substrate incubated for 30 mins in presence of ATP by scintillation counting method; conditions: not given
Sequence (P11309 whole entry): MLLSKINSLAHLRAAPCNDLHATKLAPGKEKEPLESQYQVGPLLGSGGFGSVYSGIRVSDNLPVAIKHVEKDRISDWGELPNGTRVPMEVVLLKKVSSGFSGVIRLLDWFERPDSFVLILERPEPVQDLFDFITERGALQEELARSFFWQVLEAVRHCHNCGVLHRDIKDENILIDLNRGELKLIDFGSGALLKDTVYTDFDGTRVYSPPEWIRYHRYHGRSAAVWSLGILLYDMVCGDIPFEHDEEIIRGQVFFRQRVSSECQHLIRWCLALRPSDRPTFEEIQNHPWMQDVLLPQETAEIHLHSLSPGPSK

Row | Structure (SMILES) | IC50
19 | O=C1NC(N2CCOCC2)=N/C1=C\c1ccc2c(c1)OCO2 | 2.4 µM
20 | O=C1NC(Nc2cccc(F)c2)=N/C1=C\c1ccc2c(c1)OCO2 | 1.2 µM
21 | O=C1NC(N2CCCC2)=N/C1=C\c1ccc2c(c1)OCO2 | 1.5 µM
22 | O=C1NC(Nc2ccccc2)=N/C1=C\c1ccc(O)c(O)c1 | 0.84 µM

target: Dual specificity tyrosine-phosphorylation-regulated kinase 1B (Homo sapiens, UniProt Q9Y463); conditions: not given
Sequence (Q9Y463 whole entry): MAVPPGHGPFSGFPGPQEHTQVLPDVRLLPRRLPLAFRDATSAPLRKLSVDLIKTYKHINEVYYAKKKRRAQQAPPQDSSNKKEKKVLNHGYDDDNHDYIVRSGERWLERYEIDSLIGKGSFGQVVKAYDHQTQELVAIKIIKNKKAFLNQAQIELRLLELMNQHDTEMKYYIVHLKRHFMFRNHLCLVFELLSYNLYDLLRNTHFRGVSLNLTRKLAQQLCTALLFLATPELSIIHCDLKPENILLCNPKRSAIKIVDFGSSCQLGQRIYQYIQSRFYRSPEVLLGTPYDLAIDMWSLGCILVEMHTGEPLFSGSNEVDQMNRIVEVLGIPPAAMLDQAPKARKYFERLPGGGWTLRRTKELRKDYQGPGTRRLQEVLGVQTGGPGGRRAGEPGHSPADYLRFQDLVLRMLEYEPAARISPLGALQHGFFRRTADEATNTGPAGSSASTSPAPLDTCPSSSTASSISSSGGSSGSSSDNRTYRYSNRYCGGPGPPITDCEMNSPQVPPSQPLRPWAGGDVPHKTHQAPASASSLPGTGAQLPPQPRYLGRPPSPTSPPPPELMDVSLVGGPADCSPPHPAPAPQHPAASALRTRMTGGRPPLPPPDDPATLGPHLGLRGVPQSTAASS

Row | Structure (SMILES) | IC50
23 | O=C1NC(N2CCOCC2)=N/C1=C\c1ccc2c(c1)OCO2 | 1.7 µM
24 | O=C1NC(Nc2cccc(F)c2)=N/C1=C\c1ccc2c(c1)OCO2 | 0.035 µM
25 | O=C1NC(N2CCCC2)=N/C1=C\c1ccc2c(c1)OCO2 | 2.3 µM
26 | O=C1NC(Nc2ccccc2)=N/C1=C\c1ccc(O)c(O)c1 | 0.32 µM

target: Dual specificity tyrosine-phosphorylation-regulated kinase 1A (Homo sapiens, UniProt Q13627); assay: Inhibition of GST-fused human recombinant DYRK1A expressed in Escherichia coli using GRSRSRSRSRSR peptide as substrate incubated for 30 mins in presence of ATP by scintillation counting method; conditions: not given

Row | Structure (SMILES) | IC50
27 | O=C1NC(N2CCOCC2)=N/C1=C\c1ccc2c(c1)OCO2 | 0.44 µM
28 | O=C1NC(Nc2cccc(F)c2)=N/C1=C\c1ccc2c(c1)OCO2 | 0.019 µM
29 | O=C1NC(N2CCCC2)=N/C1=C\c1ccc2c(c1)OCO2 | 0.63 µM
30 | O=C1NC(Nc2ccccc2)=N/C1=C\c1ccc(O)c(O)c1 | 0.15 µM

target: Dual specificity protein kinase CLK2 (Mus musculus, UniProt O35491); assay: Inhibition of mouse recombinant GST-fused CLK2 expressed in Escherichia coli using GRSRSRSRSRSR peptide as substrate incubated for 30 mins in presence of ATP by scintillation counting method; conditions: not given
Sequence (O35491 whole entry, the tested form may be a part): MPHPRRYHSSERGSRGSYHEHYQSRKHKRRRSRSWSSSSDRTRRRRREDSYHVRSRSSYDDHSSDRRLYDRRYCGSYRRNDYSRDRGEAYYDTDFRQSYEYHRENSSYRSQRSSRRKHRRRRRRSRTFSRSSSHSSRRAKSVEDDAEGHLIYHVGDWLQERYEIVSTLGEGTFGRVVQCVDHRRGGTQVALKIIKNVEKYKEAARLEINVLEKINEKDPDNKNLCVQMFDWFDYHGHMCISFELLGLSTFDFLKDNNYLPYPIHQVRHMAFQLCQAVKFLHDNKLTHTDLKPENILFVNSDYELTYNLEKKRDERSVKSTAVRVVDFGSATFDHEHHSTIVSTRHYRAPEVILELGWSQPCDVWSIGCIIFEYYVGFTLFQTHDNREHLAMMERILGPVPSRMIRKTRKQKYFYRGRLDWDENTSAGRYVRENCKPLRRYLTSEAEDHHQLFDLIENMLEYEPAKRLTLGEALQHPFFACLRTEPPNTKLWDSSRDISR

Row | Structure (SMILES) | IC50
31 | O=C1NC(N2CCOCC2)=N/C1=C\c1ccc2c(c1)OCO2 | 1.5 µM
32 | O=C1NC(Nc2cccc(F)c2)=N/C1=C\c1ccc2c(c1)OCO2 | 0.13 µM
33 | O=C1NC(N2CCCC2)=N/C1=C\c1ccc2c(c1)OCO2 | 2.3 µM
34 | O=C1NC(Nc2ccccc2)=N/C1=C\c1ccc(O)c(O)c1 | 1.5 µM

target: Dual specificity protein kinase CLK4 (Mus musculus, UniProt O35493); assay: Inhibition of GST-fused mouse recombinant CLK4 expressed in Escherichia coli using GRSRSRSRSRSR peptide as substrate incubated for 30 mins in presence of ATP by scintillation counting method; conditions: not given
Sequence (O35493 whole entry, the tested form may be a part): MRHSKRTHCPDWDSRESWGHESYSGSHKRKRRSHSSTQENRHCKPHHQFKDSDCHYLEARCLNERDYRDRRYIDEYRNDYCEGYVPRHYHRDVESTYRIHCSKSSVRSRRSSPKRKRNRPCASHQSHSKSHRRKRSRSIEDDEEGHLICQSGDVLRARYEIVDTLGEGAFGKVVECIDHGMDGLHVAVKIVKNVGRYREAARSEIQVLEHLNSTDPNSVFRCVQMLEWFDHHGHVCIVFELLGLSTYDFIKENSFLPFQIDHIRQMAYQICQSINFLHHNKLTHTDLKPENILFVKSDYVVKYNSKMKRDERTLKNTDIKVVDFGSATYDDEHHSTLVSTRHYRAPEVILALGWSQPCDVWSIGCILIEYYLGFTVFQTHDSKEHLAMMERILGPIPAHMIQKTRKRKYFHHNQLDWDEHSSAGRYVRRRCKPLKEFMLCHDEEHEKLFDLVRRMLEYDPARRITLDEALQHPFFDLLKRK

Row | Structure (SMILES) | IC50
35 | O=C1NC(N2CCOCC2)=N/C1=C\c1ccc2c(c1)OCO2 | 0.29 µM
36 | O=C1NC(Nc2cccc(F)c2)=N/C1=C\c1ccc2c(c1)OCO2 | 0.03 µM
37 | O=C1NC(N2CCCC2)=N/C1=C\c1ccc2c(c1)OCO2 | 0.38 µM
38 | O=C1NC(Nc2ccccc2)=N/C1=C\c1ccc(O)c(O)c1 | 0.13 µM

target: Casein kinase 2 (Homo sapiens, UniProt P67870+P68400+P19784+Q8NEV1); assay: Inhibition of human recombinant CK2 using RRRDDDSDDD peptide as substrate incubated for 30 mins in presence of ATP by scintillation counting method; assay type: protein assay; conditions: not given

Row | Structure (SMILES) | IC50
39 | O=C1NC(N2CCOCC2)=N/C1=C\c1ccc2c(c1)OCO2 | 1.1 µM
40 | O=C1NC(Nc2cccc(F)c2)=N/C1=C\c1ccc2c(c1)OCO2 | 0.8 µM
41 | O=C1NC(N2CCCC2)=N/C1=C\c1ccc2c(c1)OCO2 | 1.2 µM
42 | O=C1NC(Nc2ccccc2)=N/C1=C\c1ccc(O)c(O)c1 | 1.5 µM

target: Cannabinoid receptor 1 (Homo sapiens, UniProt P21554); assay: Antagonist activity at CP-55940-activated CB1 receptor (unknown origin) at 10 uM by beta-arrestin assay relative to control; assay type: functional; set-up: scale not given: the % may be the effect or the level left; conditions: not given
Sequence (P21554 whole entry): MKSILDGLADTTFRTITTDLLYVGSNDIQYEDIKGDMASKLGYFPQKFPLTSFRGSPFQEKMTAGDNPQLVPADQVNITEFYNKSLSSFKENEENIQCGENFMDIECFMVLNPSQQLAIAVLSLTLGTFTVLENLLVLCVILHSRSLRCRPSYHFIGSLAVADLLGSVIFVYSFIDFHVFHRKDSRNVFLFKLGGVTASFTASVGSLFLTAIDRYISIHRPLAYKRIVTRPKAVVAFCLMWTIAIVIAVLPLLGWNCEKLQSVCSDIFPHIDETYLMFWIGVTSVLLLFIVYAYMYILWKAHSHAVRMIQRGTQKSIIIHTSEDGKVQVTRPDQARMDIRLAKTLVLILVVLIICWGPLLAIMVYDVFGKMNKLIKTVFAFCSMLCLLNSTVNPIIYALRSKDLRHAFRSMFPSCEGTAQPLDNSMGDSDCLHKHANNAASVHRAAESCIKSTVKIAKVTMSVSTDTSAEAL

Row | Structure (SMILES) | Activity
43 | O=C1NC(N2CCOCC2)=N/C1=C\c1ccc2c(c1)OCO2 | -51%
44 | O=C1NC(N2CCCC2)=N/C1=C\c1ccc2c(c1)OCO2 | -59.1%
45 | O=C1NC(Nc2ccccc2)=N/C1=C\c1ccc(O)c(O)c1 | -22.3%

same assay, conditions: filed as antagonist

Row | Structure (SMILES) | Activity
46 | O=C1NC(Nc2cccc(F)c2)=N/C1=C\c1ccc2c(c1)OCO2 | 83.4%

target: T2, Dual specificity tyrosine-phosphorylation-regulated kinase 3 (Homo sapiens, UniProt O43781); assay: Inhibition of GST-fused human recombinant DYRK3 expressed in Escherichia coli using GRSRSRSRSRSR peptide as substrate incubated for 30 mins in presence of ATP by scintillation counting method; conditions: not given
T2 sequence (O43781 whole entry): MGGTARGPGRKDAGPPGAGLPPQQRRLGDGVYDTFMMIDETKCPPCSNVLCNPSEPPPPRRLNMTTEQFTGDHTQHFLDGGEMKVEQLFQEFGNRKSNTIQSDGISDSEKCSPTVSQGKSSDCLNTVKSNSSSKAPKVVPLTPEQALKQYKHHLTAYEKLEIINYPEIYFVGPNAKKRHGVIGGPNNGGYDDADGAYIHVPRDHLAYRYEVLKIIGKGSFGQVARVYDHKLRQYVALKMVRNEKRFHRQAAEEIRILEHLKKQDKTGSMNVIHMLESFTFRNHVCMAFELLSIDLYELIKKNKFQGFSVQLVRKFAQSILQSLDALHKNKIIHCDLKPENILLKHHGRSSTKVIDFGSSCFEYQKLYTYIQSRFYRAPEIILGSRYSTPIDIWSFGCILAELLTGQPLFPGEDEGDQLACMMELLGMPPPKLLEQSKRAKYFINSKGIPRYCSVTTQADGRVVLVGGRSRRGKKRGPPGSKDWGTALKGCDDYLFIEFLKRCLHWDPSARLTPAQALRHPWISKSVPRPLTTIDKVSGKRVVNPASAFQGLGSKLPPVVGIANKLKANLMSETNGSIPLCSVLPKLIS

Row | Structure (SMILES) | IC50
47 | O=C1NC(N2CCOCC2)=N/C1=C\c1ccc2c(c1)OCO2 | 1.9 µM
48 | O=C1NC(Nc2cccc(F)c2)=N/C1=C\c1ccc2c(c1)OCO2 | 0.35 µM
49 | O=C1NC(N2CCCC2)=N/C1=C\c1ccc2c(c1)OCO2 | 0.93 µM
50 | O=C1NC(Nc2ccccc2)=N/C1=C\c1ccc(O)c(O)c1 | 1.2 µM

test system: U2OS; assay: Induction of PI3K/mTor-dependent autophagy in human U2OS cells assessed as number of LC3 foci per cell at 10 uM measured after 4 hrs; assay type: cell-based; conditions: filed as activator

Row | Structure (SMILES) | Activity
51 | O=C1NC(N2CCOCC2)=N/C1=C\c1ccc2c(c1)OCO2 | 6.5
52 | O=C1NC(Nc2cccc(F)c2)=N/C1=C\c1ccc2c(c1)OCO2 | 7.5
53 | O=C1NC(N2CCCC2)=N/C1=C\c1ccc2c(c1)OCO2 | 5
54 | O=C1NC(Nc2ccccc2)=N/C1=C\c1ccc(O)c(O)c1 | 10.1

test system: HT-22; assay: Neuroprotective activity against glutamate-induced cell death in mouse HT-22 cells treated for 24 hrs by MTS assay; assay type: functional, cell-based; conditions: HT-22, 24 h

Row | Structure (SMILES) | EC50
55 | O=C1NC(Nc2cccc(F)c2)=N/C1=C\c1ccc2c(c1)OCO2 | 5 µM
56 | O=C1NC(Nc2ccccc2)=N/C1=C\c1ccc(O)c(O)c1 | 3.3 µM

target: Glycogen synthase kinase-3 (Sus scrofa, UniProt B2LUN4+I6LNT8); assay: Inhibition of porcine brain GSK-3alpha/beta using YRRAAVPPSPSLSRHSSPHQpSEDEEE as substrate incubated for 30 mins in presence of ATP by scintillation counting method; assay type: tissue-based; conditions: not given

Row | Structure (SMILES) | IC50
57 | O=C1NC(N2CCOCC2)=N/C1=C\c1ccc2c(c1)OCO2 | 6.5 µM
58 | O=C1NC(Nc2cccc(F)c2)=N/C1=C\c1ccc2c(c1)OCO2 | 0.56 µM
59 | O=C1NC(N2CCCC2)=N/C1=C\c1ccc2c(c1)OCO2 | 6.2 µM
60 | O=C1NC(Nc2ccccc2)=N/C1=C\c1ccc(O)c(O)c1 | 1.2 µM
